Measurements taken from US9072729B2, “Method for treating fibrosis and cancer with imidazolium and imidazolinium compounds” (Agency for Science, Technology and Research, priority 2008, dated 2015).

Experiments:
[1] = system: p53 signaling pathway-associated gene expression in HLE cells; experiment: Real-time PCR array of p53 signaling pathway-associated genes; assay type: cell-based, human; conditions: 48 h; for increase of ATM gene expression vs control: IBN-19 90 uM, IBN-24 90 uM, IBN-25 40 uM
Description: FIG. 42. Real-Time PCR array analysis of p53 signaling pathway-associated gene expression. (A) Anti-apoptotic genes. (B) Growth inhibition gene SESN2. (C) Cell cycle check point genes. (D) Cell proliferation genes. (E) DNA repair gene ATM. The relative level of gene expression was normalized with housekeeping gene GAPDH. Values are expressed as mean±standard deviation.
Cells were seeded at a density of 4×10^5 cells per dish in 10 cm dishes. Next day, the cells were exposed to 90 uM of IBN-19, 90 uM of IBN-24, 40 uM of IBN-25 and 0.045% of DMSO (Dimethyl Sulphoxide) as the control. After 48 hrs, total RNAs were extracted from the cells using Nucleospin RNA II kit as per the manufacturer's istructions. RNA quality and yield were evaluated after spectrophotometer measurements.
The human apoptosis PCR array (RT^2 Profiler) was used to analyze mRNA levels of 84 key genes involved in apoptosis, in a 96-well format, according to the manufacturer's instructions (Super Array Bioscience). First-strand cDNA was synthesized with 1 μg of RNA by using a PCR array first strand-synthesis kit (C-03; Super array Bioscience). This kit uses reverse transcriptase (Power Script; Super array Bioscience) and a combination of random primers and oligo dT primers. The total volume of the reaction was 20 μL diluted to 100 μL. PCR reactions were performed using real-time PCR (79s00HT 96-well block with RT^2 Real-Time SYBR Green PCR master mix PA-012; Applied Biosystems Instruments 7500). The total volume of the PCR reaction was 25 μl. An equivalent of […] of RNA was applied to the PCR reaction. The thermocycler parameters were 95° C. for 10 minutes, followed by 40 cycles of 95° C. for 15 seconds and 60° C. for 1 minute. Relative changes in gene expression were calculated using the ΔΔCt (cycle threshold) method. An average of the number of cycles of the five housekeeping genes, GAPDH, Actin-β, β2m, Hprt1, and Rpl13d, was used to normalize the expression between samples. The expression data are presented as fold regulation. GAPDH gene expression levels were utilized as an internal control to normalize the data. Reported fold changes in expression are the ratios of treatment over control values.
To obtain more information on how the IMSs influence other gene expression in the HLE cells, 84 genes related to p53 signal transduction were profiled by using the RT^2 Profiler array (Super Array Bioscience) (FIG. 42A, B, C, D, E). The array includes keys genes relevant to p53, apoptosis, cell cycle, cell growth, proliferation, differentiation, and DNA repair.

[2] = system: GFAP-LacZ transgene; experiment: β-galactosidase activity in T6/GFAP-lacZ cells; assay type: cell-based, rat
Description: FIG. 12. (a) DBZIM and (b) TDBZIM attenuated GFAP-LacZ transgene as reported by β-galactosidase activity. Stable transfected T6 GFAP-LacZ cells were treated with compounds of 1-300 μM concentrations, and assayed after 24 h and 48 h. The (3-galactosidase activity was normalized to the total protein, and presented as relative value after comparing to the vehicle control. The data were presented as mean and SEM, N=6, *^cP<0.005, and *^dP<0.0005, when compared to the vehicle control.
Beta-galactosidase activity in extracts from T6/GFAP-lacZ cells treated by DBZIM or TDBZIM was measured using a chemiluminescent assay kit (Roche, Mannheim, Germany) in a 96-well plate format, according to the manufacturer's instructions. Briefly, cells were washed twice with ice-cold 1×PBS (pH 7.4), and lysed for 30 min at room temperature in the lysis buffer. The supernatant was collected for assays with a Tecan Sere II plate reader. Protein concentration was determined with a BCA protein assay kit (Pierce, Ill., USA). Specific β-galactosidase activity was obtained by normalizing against total cellular protein content.

[3] = system: U87 MG; experiment: Caspase 3/7 activity in U87 MG; assay type: cell-based, human; conditions: 2 mM, 6 hr
Description: (§1) FIG. 30. DBZIM inhibited cell proliferation in glioma cell line C6 (A) and U87 MG (C) and induced caspase 3/7 activity in C6 (B) and U87 MG (D). C6 or U87 cells were incubated with DBZIM of various concentrations for 48 hr for proliferation assay and 6 hr for caspase 3/7 activation assay. Proliferation was measured using MTS kit from Promega and expressed as relative cell proliferation with control group was normalized to 1. Caspase 3/7 activity was quantified using a kit from Promega and also expressed as relative caspase 3/7 activity of treated groups over control group.
(§2) Capspase 3/7 activity and lactate dehydrogenase (LDH) release were measured by Fluorometric assays (Promega Corp., WI, USA). The HCC cells were cultured in 96-well plate and treated with DBZIM of various concentrations for 6 hr before assays. For caspase 3/7 assay, medium was removed and substrate buffer was added to lyse the cell and react with caspase 3/7 to give rise to fluorescence signal which was read at Ex=485 nm and Em=530 nm on a Tecan Safire II plate reader after 1 hr incubation. The caspase 3/7 activity of sample cells with the compound treatment was expressed as relative fold change after normalizing to the control cells. The LDH assay (indicative of membrane integrity) was performed using a Kit from Promega Corp according to manufactor's instructions.

[4] = system: C6; experiment: Caspase 3/7 activity in C6; assay type: cell-based, rat; conditions: C6, 2.0 mM, 6 hr
Description: as §1, §2

[5] = system: liver fibrosis induced by thioacetamide (TAA); experiment: Liver fibrosis in mice induced by thioacetamide (TAA); assay type: in vivo, mouse; conditions: TAA model, 500 mg/L in drinking water, 12 weeks
Description: FIG. 15 Effect of DBZIM and DPIM on liver fibrosis in mice. DBZIM was tested on mice induced by (a) liver toxin thioacetamide (TAA) or by (b) bile duct ligation (BDL). DPIM was also tested on mice induced by TAA (data not shown)) or by (c) bile duct ligation (BDL).
For the liver toxin thioacetamide (TAA) model, TAA was given by i.p. injection at 200 mg/kg body weight, 3 times per week, for 12 weeks, to induce hepatic fibrosis in mice. For the bile duct ligation model (BDL), adult mice were anesthetized with Ketamine (150 mg/kg)/Xylazine (10 mg/kg) via i.p. injection. An abdominal incision at the midline is made to expose the common bile conduct, which was then ligated using 5-0 silk suture. In the control animal, the bile duct is exposed, but not ligated. DBZIM or DPIM was provided to the mice in drinking water at concentrations from 1 to 1000 mg/liter. The collagen content in the fibrotic liver was assessed by the Sirius Red staining of the liver tissue sections.

Molecule: Cc1ccc(C[n+]2ccn(Cc3ccccc3)c2)cc1.[Cl-] [IBN-24, 1-benzyl-3-(4-methylbenzyl)-imidazolium chloride]
- anti-apoptotic gene BCl-2 expression [1]: significantly down regulated
- cell proliferation genes (Mcl1, Egr1, Foxo3, Jun, Mdm4, Nf1, Prm1D, Sesn1, E2f11, Prkca, Brca1) [1]: significantly down regulated
- increase of ATM gene expression vs control [1]: 4.6 folds

Molecule: CC(=O)Oc1ccc(C[n+]2ccn(Cc3ccccc3)c2C)cc1.[Cl-] [IBN-19, 1-benzyl-3-(4-acetate-benzyl)-2-methyl-imidazolium chloride]
- SESN2 gene expression [1]: markedly induced
- increase of ATM gene expression vs control [1]: 36 folds

Molecule: 1,3,5-tris(4-methyl-imidazolium)-linked cyclophane.3Br [TDBZIM]
- suppression of β-galactosidase activity (transient) ([2]; 100 μM, 24 h): 20%

Molecule: [Br-].c1ccc(Cn2cc[n+](Cc3ccccc3)c2)cc1 [DBZIM, 1,3-bisbenzylimidazolium bromide]
- elevation of caspase 3/7 [3]: 17 folds
- elevation of caspase 3/7 [4]: 3 folds
- liver fibrosis (Sirius Red collagen) [5]: attenuated fibrosis
- suppression of β-galactosidase activity ([2]; 100 μM): 25%
- suppression of β-galactosidase activity ([2]; 300 μM): 34%
